27 compounds from ChEMBL document CHEMBL4376849, “Harmicines - harmine and cinnamic acid hybrids as novel antiplasmodial hits” (Eur J Med Chem, 2020) can be followed below.

One series concerns HepG2. The series can be described thus: Cytotoxicity against human HepG2 cells measured after 24 hrs by neutral red assay. The format is cell-based. The settings on record: HepG2, 24 h.
Series [1] concerns Plasmodium falciparum. Kind of series: Antiplasmodial activity against chloroquine-sensitive Plasmodium falciparum 3D7 erythrocytic stage measured after 3 days by HRP2 assay. The format is functional, organism-based. The settings on record: 3D7, 72 h.
Series [2] has as its system Plasmodium falciparum. Kind of series: Antiplasmodial activity against chloroquine-resistant Plasmodium falciparum Dd2 erythrocytic stage measured after 3 days by HRP2 assay. It counts as functional, organism-based. The note with it: Dd2, 72 h.
The nature of series [3]: Selectivity index, ratio of IC50 for human HepG2 cells to IC50 for Plasmodium falciparum 3D7. It counts as toxicity. The settings on record: read-out: Ratio IC50.
The subject of the next series is Plasmodium berghei. Kind of series: Antiplasmodial activity against liver stage luciferase expressing Plasmodium berghei sporozoites infected in human Huh7 cells preincubated with host cells for 1 hr followed by plasmodium infection by bioluminescence assay. The format is functional, organism-based. The settings on record: Huh-7.

Structures are written as SMILES.

With `Cc1nccc2c3ccc(OCc4cn(C/C=C/c5ccc(F)cc5)nn4)cc3n(Cc3cn(C/C=C/c4ccc(F)cc4)nn3)c12`, the IC50 (usually the midpoint of a concentration-inhibition curve) was determined as 12100 nM in the series on HepG2, 620 nM in the series on Plasmodium falciparum [1] and 8000 nM in the series on Plasmodium falciparum [2]. Besides, the selectivity ratio in series [3] was 20.

On to `COc1ccc2c3ccnc(C)c3n(Cc3cn(C/C=C/c4ccc(Cl)cc4)nn3)c2c1`, for which the IC50 in the series with HepG2 was over 250000 nM; in the series on Plasmodium berghei, 1120 nM; with Plasmodium falciparum [1] it was 440 nM; in the series with Plasmodium falciparum [2] it was 1870 nM. Moreover, the selectivity ratio in series [3] is over 568.

Consider `C/C(=C\c1ccccc1)Cn1cc(COc2ccc3c4ccnc(C)c4n(Cc4cn(C/C(C)=C/c5ccccc5)nn4)c3c2)nn1`, for which the IC50 with HepG2 is 25000 nM; in the series on Plasmodium falciparum [1], 1340 nM; with Plasmodium falciparum [2], 4020 nM. Further, in series [3], the selectivity ratio was 19.

As for `Cc1nccc2c1[nH]c1cc(OCc3cn(C/C=C/c4ccc(F)c(F)c4)nn3)ccc12`, the IC50 with HepG2 amounted to 740 nM; in the series on Plasmodium falciparum [1] it was 340 nM; in the series on Plasmodium falciparum [2] it was 1010 nM. Moreover, the selectivity ratio in series [3] was determined as 2.

Turning to `Cc1nccc2c3ccc(OCc4cn(C/C=C/c5ccc(F)c(F)c5)nn4)cc3n(Cc3cn(C/C=C/c4ccc(F)c(F)c4)nn3)c12`, the IC50 in the series with HepG2 came out at 11000 nM; in the series with Plasmodium falciparum [1], 1070 nM; in the series with Plasmodium falciparum [2], 17900 nM. For the same compound, the selectivity ratio in series [3] was 6.

Turning to `COc1ccc2c3ccnc(C)c3n(Cc3cn(C/C=C/c4ccccc4)nn3)c2c1`, the IC50 with HepG2 was over 250000 nM; in the series on Plasmodium berghei, 2620 nM; with Plasmodium falciparum [1] it was 1260 nM; in the series with Plasmodium falciparum [2], 23800 nM. Also, in series [3], the selectivity ratio was over 198.

In the case of `COc1ccc2c3ccnc(C)c3n(Cc3cn(C/C=C/c4ccc(F)cc4)nn3)c2c1`, the IC50 is 8880 nM with HepG2, 870 nM in the series with Plasmodium falciparum [1] and 2210 nM in the series on Plasmodium falciparum [2]. Further, in series [3], the selectivity ratio turned out to be 10.

Turning to `C/C(=C\c1ccccc1)Cn1cc(COc2ccc3c(c2)[nH]c2c(C)nccc23)nn1`, the IC50 in the series on HepG2 came out at 25300 nM; with Plasmodium berghei, 660 nM; with Plasmodium falciparum [1] it was 330 nM; with Plasmodium falciparum [2], 3060 nM. Further, the selectivity ratio in series [3] came out at 77.

For the compound `Cc1nccc2c3ccc(OCc4cn(C/C=C/c5ccccc5)nn4)cc3n(Cc3cn(C/C=C/c4ccccc4)nn3)c12`, the IC50 worked out at 8590 nM with HepG2, 560 nM in the series with Plasmodium falciparum [1] and 1590 nM in the series on Plasmodium falciparum [2]. Further, in series [3], the selectivity ratio amounted to 15.

Turning to `COc1ccc(/C=C/Cn2cc(COc3ccc4c(c3)[nH]c3c(C)nccc34)nn2)cc1`, the IC50 in the series with HepG2 is 5370 nM; in the series with Plasmodium falciparum [1], 430 nM; in the series on Plasmodium falciparum [2], 690 nM. In addition, in series [3], the selectivity ratio is 12.

On to `Cc1nccc2c1[nH]c1cc(OCc3cn(C/C=C/c4ccccc4)nn3)ccc12`, for which the IC50 in the series with HepG2 stood at 9670 nM; with Plasmodium falciparum [1], 260 nM; in the series on Plasmodium falciparum [2], 1090 nM. Also, the selectivity ratio in series [3] came out at 37.

As for `COc1ccc2c3ccnc(C)c3n(Cc3cn(C/C=C/c4cccc(Br)c4)nn3)c2c1`, the IC50 with HepG2 amounted to 56600 nM; with Plasmodium berghei, 1100 nM; in the series with Plasmodium falciparum [1] it was 560 nM; with Plasmodium falciparum [2], 2260 nM. The selectivity ratio in series [3] amounted to 101.

For the compound `Cc1nccc2c1[nH]c1cc(OCc3cn(C/C=C/c4ccc5c(c4)OCO5)nn3)ccc12`, the IC50 with HepG2 came out at 5600 nM; with Plasmodium falciparum [1] it was 160 nM; in the series on Plasmodium falciparum [2] it was 470 nM. Further, the selectivity ratio in series [3] came out at 35.

Take `COc1ccc(/C=C/Cn2cc(COc3ccc4c5ccnc(C)c5n(Cc5cn(C/C=C/c6ccc(OC)cc6)nn5)c4c3)nn2)cc1`: the IC50 worked out at 43300 nM in the series on HepG2, 400 nM with Plasmodium berghei, 130 nM in the series with Plasmodium falciparum [1] and 160 nM in the series on Plasmodium falciparum [2]. For the same compound, the selectivity ratio in series [3] amounted to 333.

Regarding `Cc1nccc2c3ccc(OCc4cn(C/C=C/c5cccc(F)c5)nn4)cc3n(Cc3cn(C/C=C/c4cccc(F)c4)nn3)c12`, the IC50 in the series with HepG2 amounted to 6010 nM; in the series with Plasmodium falciparum [2], 3230 nM. In series [3], the selectivity ratio amounted to 2.

Regarding `COc1ccc2c3ccnc(C)c3n(Cc3cn(C/C(C)=C/c4ccccc4)nn3)c2c1`, the figures for the IC50 in the series with HepG2, with Plasmodium falciparum [1] and in the series on Plasmodium falciparum [2] were 11900 nM, 770 nM and 2820 nM, respectively. The selectivity ratio in series [3] was determined as 15.

On to `Cc1nccc2c1[nH]c1cc(OCc3cn(C/C=C/c4ccc(Cl)cc4)nn3)ccc12`, for which the IC50 is 8800 nM in the series on HepG2, 150 nM with Plasmodium falciparum [1] and 690 nM with Plasmodium falciparum [2]. The selectivity ratio in series [3] is 59.

Regarding `Cc1nccc2c1[nH]c1cc(OCc3cn(C/C=C/c4cccc(F)c4)nn3)ccc12`, the figures for the IC50 in the series with HepG2, in the series on Plasmodium falciparum [1] and in the series with Plasmodium falciparum [2] were 3110 nM, 200 nM and 1190 nM, respectively. For the same compound, the selectivity ratio in series [3] came out at 16.

In the case of `COc1ccc2c3ccnc(C)c3n(Cc3cn(C/C=C/c4ccc(F)c(F)c4)nn3)c2c1`, the IC50 is 9750 nM in the series on HepG2, 650 nM in the series on Plasmodium falciparum [1] and 2550 nM with Plasmodium falciparum [2]. Further, the selectivity ratio in series [3] amounted to 15.

Regarding `Cc1nccc2c1[nH]c1cc(OCc3cn(C/C=C/c4cccc(Br)c4)nn3)ccc12`, the IC50 with HepG2 worked out at 2860 nM; in the series on Plasmodium falciparum [1], 130 nM; in the series with Plasmodium falciparum [2], 460 nM. The selectivity ratio in series [3] is 22.

For the compound `COc1ccc2c3ccnc(C)c3n(Cc3cn(C/C=C/c4ccc5c(c4)OCO5)nn3)c2c1`, the IC50 with HepG2 was determined as 8780 nM; in the series with Plasmodium falciparum [1], 500 nM; in the series on Plasmodium falciparum [2], 1570 nM. The selectivity ratio in series [3] came to 18.

Regarding `Cc1nccc2c3ccc(OCc4cn(C/C=C/c5ccc(Cl)cc5)nn4)cc3n(Cc3cn(C/C=C/c4ccc(Cl)cc4)nn3)c12`, the IC50 in the series on HepG2 worked out at 29000 nM; in the series with Plasmodium falciparum [1], 250 nM; in the series with Plasmodium falciparum [2], 3280 nM. Moreover, in series [3], the selectivity ratio worked out at 116.

For `COc1ccc2c(c1)[nH]c1c(C)nccc12` [HARMINE], the IC50 in the series with HepG2 is over 250000 nM; in the series on Plasmodium falciparum [2], over 27700 nM.

`COc1ccc2c3ccnc(C)c3n(Cc3cn(C/C=C/c4cccc(F)c4)nn3)c2c1`: the IC50 with HepG2 was over 250000 nM; with Plasmodium falciparum [1], 890 nM; with Plasmodium falciparum [2] it was 2700 nM. In addition, the selectivity ratio in series [3] was over 281.

In the case of `COc1ccc(/C=C/Cn2cc(Cn3c4cc(OC)ccc4c4ccnc(C)c43)nn2)cc1`, the results for the IC50 with HepG2, in the series on Plasmodium falciparum [1] and in the series with Plasmodium falciparum [2] were over 120000 nM, 610 nM and 16600 nM, respectively. Moreover, in series [3], the selectivity ratio was over 197.

Take `Cc1nccc2c1[nH]c1cc(OCc3cn(C/C=C/c4ccc(F)cc4)nn3)ccc12`: the figures for the IC50 in the series on HepG2, in the series on Plasmodium falciparum [1] and in the series on Plasmodium falciparum [2] were 2190 nM, 200 nM and 840 nM, respectively. Also, the selectivity ratio in series [3] turned out to be 11.

Regarding `Cc1nccc2c3ccc(OCc4cn(C/C=C/c5ccc6c(c5)OCO6)nn4)cc3n(Cc3cn(C/C=C/c4ccc5c(c4)OCO5)nn3)c12`, the IC50 in the series on HepG2 was found to be 36100 nM; in the series with Plasmodium falciparum [1], 440 nM; in the series on Plasmodium falciparum [2], 650 nM. Besides, the selectivity ratio in series [3] is 82.
